System: Spirulina platensis (Arthrospira sp.) PCC8005
Test: Incubation of fatty acid substrates with S. platensis; fatty acid composition of extracted lipids by GC
Type: cell-based
Details: for 6,9,11 - 18:3 (desaturated metabolite), fatty acid composition of lipids extracted from S. platensis / 9,11 - 18:2 (substrate taken up), fatty acid composition of lipids extracted from S. platensis / Amount, total weight of lipid in extract / linoleic acid 18:2, fatty acid composition of lipids extracted from S. platensis / linolenic acid 18:3 (n-6), fatty acid composition of lipids extracted from S. platensis / oleic acid 18:1, fatty acid composition of lipids extracted from S. platensis / palmitic acid 16:0, fatty acid composition of lipids extracted from S. platensis / palmitoleic acid 16:1, fatty acid composition of lipids extracted from S. platensis / stearic acid 18:0, fatty acid composition of lipids extracted from S. platensis: incubation with added 9-cis,11-trans-octadecadienoic acid
Protocol: Spirulina platensis (Arthrospira sp.) PCC8005 was grown in Zabrouk's medium in 50 ml batch culture in 100 ml erlenmeyer flasks at 30° C. with illumination of 50 μmol photons m^-2 […]. Cultures were harvested following 5 days growth by centrifugation at 40,000 g in a […] rotor in a Beckman Avanti centrifuge 20 minutes, cooled rotor @4° C. The algal pellet was carefully resuspended in fresh Zabrouk's medium under aseptic conditions. Initial time-course experiments were carried out by resuspending the algal pellet in 50 ml fresh medium, which was then divided into 10 ml aliquots, each containing 0.5 ml of 1.8mM ammonium fatty acid substrate and incubating under the above conditions. Control cultures incubated without linoleate were also set up. […] The algal pellet was washed four times in 50 ml freshly drawn MilliQ water and then freeze dried prior to analyses. In later experiments where bulk material was required for a more detailed analysis of the metabolite produced, 4×50 ml cultures were grown and harvested as above. […] Following this incubation the algal material was pelleted, washed and freeze dried as described above. […] The latter were converted to the picolinyl ester derivatives by the procedure of Balazy and Nies, Biomed. Environ. […] The temperature of both the injector and detector was 250° C. Hydrogen was the carrier gas. The analyses were performed with a column (fused silica capillary) coated with carbowax (Chrompack UK Ltd, London, 30 m×[…] i.d.). The oven temperature was programmed from 170 to 220° C. at 4° C./min.

CCCCC/C=C\C=C\CCCCCCCCC(=O)O [10-t,12-c-octadecadienoic acid]
metabolite formed, share of the conjugated acids (96 hours incubation): 18 % of the conjugated acids | metabolite formed, share of the total fatty acids (96 hours incubation, GC retention time expected for 6-c,10-t,12-c-octadecatrienoic acid): 6.4 % of the total fatty acids | incorporation into the lipids of S. platensis (substrate added exogenously): rapidly incorporated

CCCCCC/C=C/C=C\CCCCCCCC(=O)O [CLA, 9-cis,11-trans-octadecadienoic acid]
recovered CLA isomer converted to the desaturated metabolite (after 24 hours): 13% | compound taken up from the surrounding medium, share of lipid (at 24 hrs): 27.8 % of lipid | time at which plateau level of the 6,9,11 tri-unsaturated fatty acid is attained (conversion of the di-unsaturated compound): about 72 hours | change of relative proportion of oleate with time (extracts incubated with the CLA isomer, 0-96 h): increased four fold | 6,9,11 - 18:3 (desaturated metabolite), fatty acid composition of lipids extracted from S. platensis (0h): 0.0 wt % | 9,11 - 18:2 (substrate taken up), fatty acid composition of lipids extracted from S. platensis (0h): 0.0 wt % | Amount, total weight of lipid in extract (0h): 85.3 µg | linoleic acid 18:2, fatty acid composition of lipids extracted from S. platensis (0h): 11.7 wt % | linolenic acid 18:3 (n-6), fatty acid composition of lipids extracted from S. platensis (0h): 32.2 wt % | oleic acid 18:1, fatty acid composition of lipids extracted from S. platensis (0h): 4.9 wt % | palmitic acid 16:0, fatty acid composition of lipids extracted from S. platensis (0h): 42.0 wt % | palmitoleic acid 16:1, fatty acid composition of lipids extracted from S. platensis (0h): 6.5 wt % | stearic acid 18:0, fatty acid composition of lipids extracted from S. platensis (0h): 2.6 wt % | 6,9,11 - 18:3 (desaturated metabolite), fatty acid composition of lipids extracted from S. platensis (24h): 4.1 wt % | 9,11 - 18:2 (substrate taken up), fatty acid composition of lipids extracted from S. platensis (24h): 27.8 wt % | Amount, total weight of lipid in extract (24h): 170.3 µg | linoleic acid 18:2, fatty acid composition of lipids extracted from S. platensis (24h): 8.2 wt % | linolenic acid 18:3 (n-6), fatty acid composition of lipids extracted from S. platensis (24h): 19.5 wt % | oleic acid 18:1, fatty acid composition of lipids extracted from S. platensis (24h): 4.0 wt % | palmitic acid 16:0, fatty acid composition of lipids extracted from S. platensis (24h): 30.7 wt % | palmitoleic acid 16:1, fatty acid composition of lipids extracted from S. platensis (24h): 4.7 wt % | stearic acid 18:0, fatty acid composition of lipids extracted from S. platensis (24h): 0.9 wt % | 6,9,11 - 18:3 (desaturated metabolite), fatty acid composition of lipids extracted from S. platensis (48h): 5.1 wt % | 9,11 - 18:2 (substrate taken up), fatty acid composition of lipids extracted from S. platensis (48h): 21.2 wt % | Amount, total weight of lipid in extract (48h): 188.3 µg | linoleic acid 18:2, fatty acid composition of lipids extracted from S. platensis (48h): 6.9 wt % | linolenic acid 18:3 (n-6), fatty acid composition of lipids extracted from S. platensis (48h): 19.0 wt % | oleic acid 18:1, fatty acid composition of lipids extracted from S. platensis (48h): 8.6 wt % | palmitic acid 16:0, fatty acid composition of lipids extracted from S. platensis (48h): 32.7 wt % | palmitoleic acid 16:1, fatty acid composition of lipids extracted from S. platensis (48h): 5.3 wt % | stearic acid 18:0, fatty acid composition of lipids extracted from S. platensis (48h): 1.2 wt % | 6,9,11 - 18:3 (desaturated metabolite), fatty acid composition of lipids extracted from S. platensis (72h): 5.7 wt % | 9,11 - 18:2 (substrate taken up), fatty acid composition of lipids extracted from S. platensis (72h): 16.2 wt % | Amount, total weight of lipid in extract (72h): 211.8 µg | linoleic acid 18:2, fatty acid composition of lipids extracted from S. platensis (72h): 4.9 wt % | linolenic acid 18:3 (n-6), fatty acid composition of lipids extracted from S. platensis (72h): 16.5 wt % | oleic acid 18:1, fatty acid composition of lipids extracted from S. platensis (72h): 15.4 wt % | palmitic acid 16:0, fatty acid composition of lipids extracted from S. platensis (72h): 34.3 wt % | palmitoleic acid 16:1, fatty acid composition of lipids extracted from S. platensis (72h): 5.4 wt % | stearic acid 18:0, fatty acid composition of lipids extracted from S. platensis (72h): 1.7 wt % | 6,9,11 - 18:3 (desaturated metabolite), fatty acid composition of lipids extracted from S. platensis (96h): 5.8 wt % | 9,11 - 18:2 (substrate taken up), fatty acid composition of lipids extracted from S. platensis (96h): 10.5 wt % | Amount, total weight of lipid in extract (96h): 166.2 µg | linoleic acid 18:2, fatty acid composition of lipids extracted from S. platensis (96h): 3.9 wt % | linolenic acid 18:3 (n-6), fatty acid composition of lipids extracted from S. platensis (96h): 15.1 wt % | oleic acid 18:1, fatty acid composition of lipids extracted from S. platensis (96h): 21.6 wt % | palmitic acid 16:0, fatty acid composition of lipids extracted from S. platensis (96h): 35.4 wt % | palmitoleic acid 16:1, fatty acid composition of lipids extracted from S. platensis (96h): 5.7 wt % | stearic acid 18:0, fatty acid composition of lipids extracted from S. platensis (96h): 1.9 wt % | incorporation into the lipids of S. platensis (substrate added exogenously): rapidly take up the compound

CCCCCC#CCC=CCCCCCCCC(=O)O [Crepenynic acid, octadeca-9-en-12-ynoic acid]
C20 homologue formed by chain elongation in the total fatty acids (96 hours incubation): detected | desaturation in position 6 by S. platensis (substrate added exogenously): converted to a dehydro-metabolite | incorporation into the lipids of S. platensis (substrate added exogenously): taken up

From patent US20010023259A1, “Conjugated fatty acids and related compounds” (Natural ASA, priority 1999, published 2001)
